The values below are quoted from earlier work in US9468597B1, “Stabilized L-ascorbic acid skin serum” (Dr. Perry Skindustries, LLC, priority 2013, dated 2016).

The test system of one series is skin. The settings on record: 18% or 10% concentration placed under a patch for 4 days.
The conditions of series [1]: without exposure to light.

For `O=C1O[C@H]([C@@H](O)CO)C(O)=C1O` [vitamin C, L-ascorbic acid], the skin irritation entry with skin is recorded as “Neither an 18% nor a 10% concentration irritated the skin”. Also, the half-life result in series [1] is “about 4 day”.
